Experimental data as given in paper PMC7589057, “Synthesis of Hantzsch Adducts as Cholinesterases and Calcium Flux inhibitors, Antioxidants and Neuroprotectives” (International Journal of Molecular Sciences, 2020).
Values joined by “and” are separate entries in the source; they are usually repeats but may differ in a detail not shown here. Equal entries are not always repeated.

Assays:
EeAChE = EeAChE (Electrophorus electricus, UniProt O42275); test: biochemical; type: biochemical; conditions: for inhibition at 10 µM: read-out: AChE % inhibition at 10 μM (no IC50 given)
Chain of EeAChE (O42275 24-633): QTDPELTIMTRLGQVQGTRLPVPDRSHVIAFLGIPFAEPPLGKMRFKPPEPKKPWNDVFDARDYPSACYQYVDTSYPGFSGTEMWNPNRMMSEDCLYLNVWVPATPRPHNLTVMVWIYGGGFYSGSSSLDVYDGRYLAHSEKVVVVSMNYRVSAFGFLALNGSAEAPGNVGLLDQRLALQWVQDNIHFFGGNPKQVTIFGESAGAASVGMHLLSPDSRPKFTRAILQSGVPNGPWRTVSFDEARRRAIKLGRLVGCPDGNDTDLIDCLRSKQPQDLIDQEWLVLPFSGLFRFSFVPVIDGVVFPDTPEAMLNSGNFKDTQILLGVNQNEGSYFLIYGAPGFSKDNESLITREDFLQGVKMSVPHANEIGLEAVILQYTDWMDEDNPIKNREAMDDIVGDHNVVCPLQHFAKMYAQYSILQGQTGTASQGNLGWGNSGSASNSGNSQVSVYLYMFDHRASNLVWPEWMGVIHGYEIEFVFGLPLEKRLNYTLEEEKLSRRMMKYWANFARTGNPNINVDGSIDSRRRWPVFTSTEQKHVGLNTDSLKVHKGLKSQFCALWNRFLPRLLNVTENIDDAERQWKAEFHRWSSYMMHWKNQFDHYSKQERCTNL
Description: (§1) The evaluation of the activity of compounds against both EeAChE and eqBuChE was evaluated following the Ellman spectrophotometric method. Briefly, the reaction happens in a final volume of 3 mL of a 0.1 M phosphate-buffered solution at pH = 8.0, containing 5,5′-dithiobis-2-nitrobenzoic acid, EeAChE or eqBuChE, tested compound and bovine albumin serum phosphate-buffered (pH = 8) solution After this pre-incubation period, acetylthiocholine iodide or butyrylthiocholine iodide was added, allowing 15 min of additional incubation time.

eqBuChE = eqBuChE (Equus caballus, UniProt P81908); test: biochemical; conditions: for inhibition at 10 µM: read-out: BuChE % inhibition at 10 μM (no IC50 given), 10 μM; for IC50: mean ± SEM, read-out: BuChE IC50
Chain of eqBuChE (P81908 whole entry): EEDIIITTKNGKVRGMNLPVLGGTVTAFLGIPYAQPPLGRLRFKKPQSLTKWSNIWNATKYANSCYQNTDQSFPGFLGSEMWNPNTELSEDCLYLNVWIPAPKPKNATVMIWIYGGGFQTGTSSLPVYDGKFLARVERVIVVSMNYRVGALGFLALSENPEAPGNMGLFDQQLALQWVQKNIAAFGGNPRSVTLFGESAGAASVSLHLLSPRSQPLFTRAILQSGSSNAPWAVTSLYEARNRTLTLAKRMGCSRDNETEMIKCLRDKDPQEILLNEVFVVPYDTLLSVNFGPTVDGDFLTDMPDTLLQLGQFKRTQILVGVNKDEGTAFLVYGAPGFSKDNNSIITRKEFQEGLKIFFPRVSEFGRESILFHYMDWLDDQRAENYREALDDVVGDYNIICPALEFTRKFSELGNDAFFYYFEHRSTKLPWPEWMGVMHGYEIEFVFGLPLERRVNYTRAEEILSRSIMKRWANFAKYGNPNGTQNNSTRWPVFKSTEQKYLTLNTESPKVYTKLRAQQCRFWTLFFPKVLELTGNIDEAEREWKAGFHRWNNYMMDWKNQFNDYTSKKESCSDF
Description: as §1

Ca^+2 channel = test: Calcium channel blockade (FLIPR Calcium 6, KCl/CaCl2-stimulated SH-SY5Y cells); type: cell-based; conditions: 10 μM; SH-SY5Y cells stimulated with KCl/CaCl2
Description: The calcium channel blockade assay was performed as described earlier. Briefly, the SH-SY5Y cells were seeded out in 96-well dark-walled plates at a density of 1 × 10^5 cells per well. After 24 h, the cells were loaded with FLIPR Calcium 6 indicator (Molecular Devices) for 2 h at 37 °C, according to the manufacturer’s protocol. Compounds were dissolved in an appropriate amount of DMSO at 10 mM concentration and diluted to a final concentration of 10 μM in Hanks′ Balanced Salt Solution (HBSS, Thermo Fisher Scientific) buffered with HEPES (Sigma-Aldrich) at pH = 7.4, and as such used were for treatment of indicator loaded cells (10 min at 37 °C). […] The baseline fluorescence was recorded for 5 s. Then, the cells were stimulated with KCl/CaCl2 solution (in HBSS, final concentration of KCl and CaCl2 was 90 and 5 mM, respectively) and the fluorescence was recorded for a further 30 s. Dimethyl sulfoxide 1% solution in HBSS was used as a vehicle control. Nimodipine (Cayman Chemical Company) was used as a reference inhibitor at 10 μM and compounds were assessed at the same final concentration in triplicate in three independent experiments. Fluorescent intensity values were normalized to the baseline.

[1] = Oxygen radical absorbance capacity assay (ORAC-FL); conditions: Trolox equivalents, mean (n = 3) ± SEM
Description: Briefly, fluorescein and antioxidant were incubated in a black 96-well microplate (Nunc) for 15 min at 37 °C. 2,2′-Azobis(amidinopropane) dihydrochloride was then added quickly using the built-in injector of Varioskan Flash plate reader (Thermo Scientific). […] All the reactions were made in triplicate and at least three different assays were performed for each sample [9, 30].

SH-SY5Y cells [2] = test: Neuroprotection against H2O2-induced cell death in SH-SY5Y cells (MTS); type: cell-based; conditions: for H2O2 (%) neuroprotection: H2O2 200 µM
Description: (§2) The most balanced compounds were then submitted to evaluation of their neuroprotection activity. For this purpose, cytotoxicity was induced by H2O2, a well-known toxic responsible for the generation of ROS and by mitochondrial respiratory chain blockers oligomycin rotenone (O/R). Prior to the neuroprotective assay, the effect of the compounds on cell viability was evaluated at 1 and 10 µM, showing no cytotoxicity against SH-SY5Y cells.
(§3) SH-SY5Y cells were seeded in 96-well culture plates at a density of 12 × 10^4 cells per well in DMEM/F12 (1:1) medium supplemented with 10% fetal bovine serum, 1X non-essential amino acids, 100 units/mL penicillin and […] streptomycin (Dutscher, France). After 48 h of incubation, the cultures were treated with 100 µl of the test compounds or DMSO (0.1%) in the same medium. After 24 h, the cells were co-incubated with H2O2 (200 µM) or O/R (O at 10 µM/R at 30 µM) with or without the tested compounds at noncytotoxic concentrations for an additional period of 24 h. The percentage of cell viability was measured using CellTiter 96 AQueous Non-Radioactive Cell Proliferation (MTS) Assay (Promega, France).

SH-SY5Y cells [3] = test: Neuroprotection against oligomycin A/rotenone (O/R)-induced cell death in SH-SY5Y cells (MTS); type: cell-based; conditions: for O/R (%) neuroprotection: O at 10 µM/R at 30 µM
Description: as §2, §3

| Structure (SMILES) | inhibition at 10 µM (EeAChE; EeAChE) [%] | inhibition at 10 µM (eqBuChE) [%] | (%) Ca Flux Inhibition (Ca^+2 channel) [%] | ORAC [1] | IC50 (eqBuChE) [µM] | neuroprotective effect against H2O2 (in words) (SH-SY5Y cells [2]) | H2O2 (%) neuroprotection (SH-SY5Y cells [2]; 0.3 µM) | H2O2 (%) neuroprotection (SH-SY5Y cells [2]; 1 µM) [%] | neuroprotective effect against O/R (in words) (SH-SY5Y cells [3]) | O/R (%) neuroprotection (SH-SY5Y cells [3]; 0.3 µM) | O/R (%) neuroprotection (SH-SY5Y cells [3]; 1 µM) | fold less active than tacrine (AChE IC50) (EeAChE; AChE IC50 vs tacrine) [fold] | IC50 (EeAChE; EeAChE, mean ± SEM, read-out: AChE IC50) [µM] |
| --- | --- | --- | --- | --- | --- | --- | --- | --- | --- | --- | --- | --- | --- |
| CCOC(=O)C1=C(C)NC(C)=C(C(=O)OCC)C1c1ccc(OCCCCCN2CCOCC2)cc1 [3a, Diethyl-2,6-dimethyl-4-(4-((5-morpholinopentyl)oxy)phenyl)-1,4-dihydropyridine-3,5-dicarboxylate] | < 50 | < 50 | 18.58 | 1.31 ± 0.01 TE | – | – | – | – | – | – | – | – | – |
| COC(=O)C1=C(C)NC(C)=C(C(=O)OC)C1c1ccc(OCCCCCN2CCOCC2)cc1 [3b, Dimethyl-2,6-dimethyl-4-(4-((5-morpholinopentyl)oxy)phenyl)-1,4-dihydropyridine-3,5-dicarboxylate] | < 50 | < 50 | 31.89 | 2.59 TE and 2.59 ± 0.04 TE | – | – | – | – | – | – | – | – | – |
| CCOC(=O)C1=C(C)NC(C)=C(C(=O)OCC)C1c1ccc(OCCCCCN(CC)CC)cc1 [3c, Diethyl-4-(4-((5-(diethylamino)pentyl)oxy)phenyl)-2,6-dimethyl-1,4-dihydropyridine-3,5-dicarboxylate] | < 50 | – | 58.21 | 2.64 TE and 2.64 ± 0.04 TE | 4.6 ± 0.1 | modest | 12.37 ± 0.08% | 24.17 ± 0.12 | modest | 22.27 ± 0.09% | 25.87 ± 0.04% | – | – |
| CCN(CC)CCCCCOc1ccc(C2C(C(=O)OC)=C(C)NC(C)=C2C(=O)OC)cc1 [3d, Dimethyl-4-(4-((5-(diethylamino)pentyl)oxy)phenyl)-2,6-dimethyl-1,4-dihydropyridine-3,5-dicarboxylate] | < 50 | < 50 | 39.55 | 1.93 ± 0.68 TE | – | – | – | – | – | – | – | – | – |
| CCOC(=O)C1=C(C)NC(C)=C(C(=O)OCC)C1c1ccc(OCCCCCN2CCN(C)CC2)cc1 [3e, Diethyl-2,6-dimethyl-4-(4-((5-(4-methylpiperazin-1-yl)pentyl)oxy)phenyl)-1,4-dihydropyridine-3,5-dicarboxylate] | < 50 | < 50 | 40.51 | 1.78 ± 0.00 TE | – | – | – | – | – | – | – | – | – |
| COC(=O)C1=C(C)NC(C)=C(C(=O)OC)C1c1ccc(OCCCCCN2CCN(C)CC2)cc1 [3f, Dimethyl-2,6-dimethyl-4-(4-((5-(4-methylpiperazin-1-yl)pentyl)oxy)phenyl)-1,4-dihydropyridine-3,5-dicarboxylate] | < 50 | < 50 | 38.4 | 1.38 ± 0.02 TE | – | – | – | – | – | – | – | – | – |
| CCOC(=O)C1=C(C)NC(C)=C(C(=O)OCC)C1c1ccc(OCCCCCN2CCC(Cc3ccccc3)CC2)cc1 [3g, Diethyl-4-(4-((5-(4-benzylpiperidin-1-yl)pentyl)oxy)phenyl)-2,6-dimethyl-1,4-dihydropyridine-3,5-dicarboxylate] | < 50 | < 50 | 53.6 | 2.24 ± 0.04 TE | – | – | – | – | – | – | – | – | – |
| COC(=O)C1=C(C)NC(C)=C(C(=O)OC)C1c1ccc(OCCCCCN2CCC(Cc3ccccc3)CC2)cc1 [3h, Dimethyl-4-(4-((5-(4-benzylpiperidin-1-yl)pentyl)oxy)phenyl)-2,6-dimethyl-1,4-dihydropyridine-3,5-dicarboxylate] | – | – | 47.72 | 2.54 TE and 2.54 ± 0.04 TE | 2 ± 0.1 | – | 28% and 28.68% and 28.68 ± 0.02 % | 23.32 ± 0.02 | – | 38.29% and 38.29 ± 0.04 % | 33.90% and 33.90 ± 0.05 % | 60 | 1.8 ± 0.1 |
